Key:
[1] = test system: bedstraw; experiment: Test C preemergence/postemergence greenhouse plant response rating 0 to 100; format: in vivo, Galium aparine; conditions: POSTEMERGENCE; for Plant response rating, Bedstraw: 0 to 100 scale
Outline: (§1)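 Compounds in non-phytotoxic solvent applied preemergence to sandy loam one day after planting, postemergence at the 1–4 leaf stage, or to ~2.5 cm floodwater over silt loam.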

[2] = test system: soybean; experiment: Test B preemergence/postemergence greenhouse plant response rating 0 to 10; format: in vivo, Glycine max; conditions: 0 to 10 scale
Outline: (§2)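 Postemergence treatment of plants two to eighteen cm tall ran alongside preemergence treatment of planted seed, each using compound in a non-phytotoxic solvent.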

[3] = test system: purple nutsedge; experiment: as above; format: in vivo, Cyperus rotundus; conditions: 0 to 10 scale
Outline: as §2

[4] = test system: umbrella sedge; experiment: Test C flood test plant response rating 0 to 100; format: in vivo, Cyperus difformis; conditions: for Plant response rating Umbrella sedge: flood test species listed under POSTEMERGENCE, 0 to 100 scale
Outline: as §1

[5] = test system: sorghum; experiment: Test B preemergence/postemergence greenhouse plant response rating 0 to 10; format: in vivo, Sorghum bicolor; conditions: 0 to 10 scale
Outline: as §2

[6] = test system: morningglory; experiment: as above; format: in vivo, Ipomoea hederacea; conditions: 0 to 10 scale
Outline: as §2

[7] = test system: chickweed; experiment: as above; format: in vivo, Stellaria media; conditions: 0 to 10 scale
Outline: as §2

[8] = test system: wheat; experiment: as above; format: in vivo, Triticum aestivum; conditions: 0 to 10 scale
Outline: as §2

[9] = test system: crabgrass; experiment: as above; format: in vivo, Digitaria spp.; conditions: for Plant response rating, Crabgrass: 0 to 10 scale
Outline: as §2

[10] = test system: wild oat; experiment: as above; format: in vivo, Avena fatua; conditions: 0 to 10 scale
Outline: as §2

[11] = test system: morningglory; experiment: Test C preemergence/postemergence greenhouse plant response rating 0 to 100; format: in vivo, Ipomoea hederacea; conditions: POSTEMERGENCE; for Plant response rating, Morningglory: 0 to 100 scale
Outline: as §1

[12] = test system: soybean; experiment: as above; format: in vivo, Glycine max; conditions: POSTEMERGENCE; for Plant response rating, Soybean: 0 to 100 scale
Outline: as §1

[13] = test system: barley; experiment: as above; format: in vivo, Hordeum vulgare; conditions: POSTEMERGENCE; for Plant response rating Barley Igri: 0 to 100 scale
Outline: as §1

[14] = test system: wild buckwheat; experiment: as above; format: in vivo, Polygonum convolvulus; conditions: POSTEMERGENCE; for Plant response rating, Wild buckwheat: 0 to 100 scale
Outline: as §1

[15] = test system: rape; experiment: Test B preemergence/postemergence greenhouse plant response rating 0 to 10; format: in vivo, Brassica napus; conditions: 0 to 10 scale
Outline: as §2

[16] = test system: chickweed; experiment: Test C preemergence/postemergence greenhouse plant response rating 0 to 100; format: in vivo, Stellaria media; conditions: POSTEMERGENCE; for Plant response rating, Chickweed: 0 to 100 scale
Outline: as §1

[17] = test system: corn; experiment: Test B preemergence/postemergence greenhouse plant response rating 0 to 10; format: in vivo, Zea mays; conditions: for Plant response rating, Corn: 0 to 10 scale
Outline: as §2

[18] = test system: downy brome; experiment: Test C preemergence/postemergence greenhouse plant response rating 0 to 100; format: in vivo, Bromus tectorum; conditions: POSTEMERGENCE; for Plant response rating Downy Brome: 0 to 100 scale
Outline: as §1

Compound: COC(=O)C(C)Oc1cc(-c2nn3c(c2Cl)CCCC3)c(F)cc1Cl (stereo not shown) [Compound 28]
- Plant response rating, Bedstraw ([1]; 62 g/ha): 100
- Plant response rating, Bedstraw ([1]; 250 g/ha): 100
- Plant response rating (0 to 100), Bedstraw ([1]; Rate 4 g/ha): 90
- Plant response rating (0 to 100), Bedstraw ([1]; Rate 16 g/ha): 100
- Plant response rating, Soybean ([2]; POSTEMERGENCE, Rate 50 g/ha): 8
- Plant response rating, Soybean ([2]; POSTEMERGENCE, Rate 200 g/ha): 9
- Plant response rating, Soybean ([2]; PREEMERGENCE, Rate 50 g/ha): 0
- Plant response rating, Soybean ([2]; Rate 200 g/ha, PREEMERGENCE): 0
- Plant response rating, Nutsedge ([3]; POSTEMERGENCE, Rate 50 g/ha): 2
- Plant response rating, Nutsedge ([3]; POSTEMERGENCE, Rate 200 g/ha): 5
- Plant response rating, Nutsedge ([3]; PREEMERGENCE, Rate 50 g/ha): 0
- Plant response rating, Nutsedge ([3]; Rate 200 g/ha, PREEMERGENCE): 0
- Plant response rating (0 to 100), Umbrella sedge ([4]; POSTEMERGENCE section, flood test, Rate 4 g/ha): 0
- Plant response rating (0 to 100), Umbrella sedge ([4]; Rate 16 g/ha, under POSTEMERGENCE head (flood test species)): 0
- Plant response rating Umbrella sedge ([4]; 62 g/ha): 20
- Plant response rating Umbrella sedge ([4]; 250 g/ha): 70
- Plant response rating, Sorghum ([5]; POSTEMERGENCE, Rate 50 g/ha): 7
- Plant response rating, Sorghum ([5]; POSTEMERGENCE, Rate 200 g/ha): 9
- Plant response rating, Sorghum ([5]; PREEMERGENCE, Rate 50 g/ha): 0
- Plant response rating, Sorghum ([5]; Rate 200 g/ha, PREEMERGENCE): 0
- Plant response rating, Morningglory ([6]; POSTEMERGENCE, Rate 50 g/ha): 8
- Plant response rating, Morningglory ([6]; POSTEMERGENCE, Rate 200 g/ha): 10
- Plant response rating, Morningglory ([6]; PREEMERGENCE, Rate 50 g/ha): 3
- Plant response rating, Morningglory ([6]; Rate 200 g/ha, PREEMERGENCE): 3
- Plant response rating, Chickweed ([7]; POSTEMERGENCE, Rate 200 g/ha): 9
- Plant response rating, Chickweed ([7]; PREEMERGENCE, Rate 50 g/ha): 1
- Plant response rating, Chickweed ([7]; Rate 200 g/ha, PREEMERGENCE): 7
- Plant response rating, Wheat ([8]; POSTEMERGENCE, Rate 50 g/ha): 7
- Plant response rating, Wheat ([8]; POSTEMERGENCE, Rate 200 g/ha): 9
- Plant response rating, Wheat ([8]; PREEMERGENCE, Rate 50 g/ha): 0
- Plant response rating, Wheat ([8]; Rate 200 g/ha, PREEMERGENCE): 2
- Plant response rating (0 to 10 scale), Crabgrass ([9]; POSTEMERGENCE, Rate 50 g/ha): 5
- Plant response rating, Crabgrass ([9]; POSTEMERGENCE, Rate 200 g/ha): 6
- Plant response rating, Crabgrass ([9]; PREEMERGENCE, Rate 50 g/ha): 0
- Plant response rating, Crabgrass ([9]; Rate 200 g/ha, PREEMERGENCE): 2
- Plant response rating, Wild oat ([10]; POSTEMERGENCE, Rate 50 g/ha): 5
- Plant response rating, Wild oat ([10]; POSTEMERGENCE, Rate 200 g/ha): 6
- Plant response rating, Wild oat ([10]; Rate 200 g/ha, PREEMERGENCE): 2
- Plant response rating, Morningglory ([11]; 62 g/ha): 100
- Plant response rating, Morningglory ([11]; 250 g/ha): 100
- Plant response rating (0 to 100), Morningglory ([11]; Rate 4 g/ha): 50
- Plant response rating (0 to 100), Morningglory ([11]; Rate 16 g/ha): 80
- Plant response rating, Soybean ([12]; 62 g/ha): 70
- Plant response rating, Soybean ([12]; 250 g/ha): 80
- Plant response rating (0 to 100), Soybean ([12]; Rate 4 g/ha): 0
- Plant response rating (0 to 100), Soybean ([12]; Rate 16 g/ha): 30
- Plant response rating Barley Igri ([13]; 62 g/ha): 40
- Plant response rating Barley Igri ([13]; 250 g/ha): 50
- Plant response rating (0 to 100), Barley Igri ([13]; Rate 4 g/ha): 20
- Plant response rating (0 to 100), Barley Igri ([13]; Rate 16 g/ha): 30
- Plant response rating, Wild buckwheat ([14]; 62 g/ha): 70
- Plant response rating, Wild buckwheat ([14]; 250 g/ha): 90
- Plant response rating (0 to 100), Wild buckwheat ([14]; Rate 4 g/ha): 30
- Plant response rating (0 to 100), Wild buckwheat ([14]; Rate 16 g/ha): 60
- Plant response rating, Rape ([15]; POSTEMERGENCE, Rate 50 g/ha): 10
- Plant response rating, Rape ([15]; POSTEMERGENCE, Rate 200 g/ha): 10
- Plant response rating, Rape ([15]; PREEMERGENCE, Rate 50 g/ha): 9
- Plant response rating, Rape ([15]; Rate 200 g/ha, PREEMERGENCE): 10
- Plant response rating, Chickweed ([16]; 62 g/ha): 80
- Plant response rating, Chickweed ([16]; 250 g/ha): 80
- Plant response rating (0 to 100), Chickweed ([16]; Rate 4 g/ha): 20
- Plant response rating (0 to 100), Chickweed ([16]; Rate 16 g/ha): 50
- Plant response rating (0 to 10 scale), Corn ([17]; POSTEMERGENCE, Rate 50 g/ha): 6
- Plant response rating, Corn ([17]; POSTEMERGENCE, Rate 200 g/ha): 9
- Plant response rating, Corn ([17]; PREEMERGENCE, Rate 50 g/ha): 0
- Plant response rating, Corn ([17]; Rate 200 g/ha, PREEMERGENCE): 2
- Plant response rating Downy Brome ([18]; 62 g/ha): 60
- Plant response rating Downy Brome ([18]; 250 g/ha): 100
- Plant response rating (0 to 100), Downy Brome ([18]; Rate 4 g/ha): 10
- Plant response rating (0 to 100), Downy Brome ([18]; Rate 16 g/ha): 40

Source: patent US6358885B1, “Substituted phenylheterocyclic herbicides” (Mississippi State University, priority 1992, dated 2002)
